Test results as given in ChEMBL document CHEMBL3046801, “Synthesis of 2-R1-2-(4-(2-fluoroethoxy)benzamido)acetate as potential PET imaging agents” (Med Chem Res, 2012).

Tests used:
[1] = Chemical stability in acetonitrile at 60 degC up to 30 min by HPLC analysis; assay type: physicochemical; details: 0.5 h
Spleen [2] = assay: Biodistribution in tumor bearing Mus musculus KM (mouse) spleen at 3.7 MBq, iv by microPET imaging analysis; assay type: ADME, organism-based; details: in vivo, TDE = time-dependent effect
Muscle tissue = assay: Biodistribution in tumor bearing Mus musculus KM (mouse) muscle at 3.7 MBq, iv measured at 60 min by microPET imaging analysis; assay type: ADME, organism-based; details: in vivo, 1 h
Tumour [3] = assay: Biodistribution in tumor of Mus musculus KM (mouse) at 3.7 MBq, iv measured at 60 min by microPET imaging analysis; assay type: ADME, organism-based, Neoplasm; details: in vivo, 1 h
Tumour [4] = assay: Biodistribution in tumor of Mus musculus KM (mouse) at 3.7 MBq, iv measured at 30 min by microPET imaging analysis; assay type: ADME, organism-based, Neoplasm; details: in vivo, 0.5 h
Brain [5] = assay: Biodistribution in tumor bearing Mus musculus KM (mouse) brain at 3.7 MBq, iv measured at 60 min by microPET imaging analysis; assay type: ADME, organism-based; details: in vivo, 1 h
Brain [6] = assay: Biodistribution in tumor bearing Mus musculus KM (mouse) brain at 3.7 MBq, iv measured at 120 min by microPET imaging analysis; assay type: ADME, organism-based; details: in vivo, 2 h
Brain [7] = assay: Biodistribution in tumor bearing Mus musculus KM (mouse) brain at 3.7 MBq, iv measured at 30 min by microPET imaging analysis; assay type: ADME, organism-based; details: in vivo, 0.5 h
Blood = assay: Biodistribution in tumor bearing Mus musculus KM (mouse) blood at 3.7 MBq, iv measured at 30 min by microPET imaging analysis; assay type: ADME, organism-based; details: in vivo, 0.5 h
Brain [8] = assay: Biodistribution in tumor bearing Mus musculus KM (mouse) brain at 3.7 MBq, iv by microPET imaging analysis; assay type: ADME, organism-based; details: in vivo, TDE = time-dependent effect
Lung [9] = assay: Biodistribution in tumor bearing Mus musculus KM (mouse) lung at 3.7 MBq, iv measured at 120 min by microPET imaging analysis; assay type: ADME, organism-based; details: in vivo, 2 h
Lung [10] = assay: Biodistribution in tumor bearing Mus musculus KM (mouse) lung at 3.7 MBq, iv measured at 30 min by microPET imaging analysis; assay type: ADME, organism-based; details: in vivo, 0.5 h
Lung [11] = assay: Biodistribution in tumor bearing Mus musculus KM (mouse) lung at 3.7 MBq, iv measured at 15 min by microPET imaging analysis; assay type: ADME, organism-based; details: in vivo, 0.25 h
Spleen [12] = assay: Biodistribution in tumor bearing Mus musculus KM (mouse) spleen at 3.7 MBq, iv measured at 120 min by microPET imaging analysis; assay type: ADME, organism-based; details: in vivo, 2 h
Spleen [13] = assay: Biodistribution in tumor bearing Mus musculus KM (mouse) spleen at 3.7 MBq, iv measured at 60 min by microPET imaging analysis; assay type: ADME, organism-based; details: in vivo, 1 h
Spleen [14] = assay: Biodistribution in tumor bearing Mus musculus KM (mouse) spleen at 3.7 MBq, iv measured at 30 min by microPET imaging analysis; assay type: ADME, organism-based; details: in vivo, 0.5 h
Spleen [15] = assay: Biodistribution in tumor bearing Mus musculus KM (mouse) spleen at 3.7 MBq, iv measured at 15 min by microPET imaging analysis; assay type: ADME, organism-based; details: in vivo, 0.25 h
Spleen [16] = assay: Biodistribution in tumor bearing Mus musculus KM (mouse) spleen at 3.7 MBq, iv measured at 5 min by microPET imaging analysis; assay type: ADME, organism-based; details: in vivo
Liver = assay: Biodistribution in tumor bearing Mus musculus KM (mouse) liver at 3.7 MBq, iv measured at 5 min by microPET imaging analysis; assay type: ADME, organism-based; details: in vivo
Heart [17] = assay: Biodistribution in tumor bearing Mus musculus KM (mouse) heart at 3.7 MBq, iv measured at 120 min by microPET imaging analysis; assay type: ADME, organism-based; details: in vivo, 2 h
Heart [18] = assay: Biodistribution in tumor bearing Mus musculus KM (mouse) heart at 3.7 MBq, iv measured at 15 min by microPET imaging analysis; assay type: ADME, organism-based; details: in vivo, 0.25 h

Stability [1]: Stable
Drug uptake (Spleen [2]): tde
Drug uptake (Muscle tissue): 0.53 % ID/g
Drug uptake (Tumour [3]): 1.48 % ID/g
Drug uptake (Tumour [4]): 1.71 % ID/g
Drug uptake (Brain [5]): 0.55 % ID/g
Drug uptake (Brain [6]): 0.6 % ID/g
Drug uptake (Brain [7]): 0.51 % ID/g
Drug uptake (Blood): 1.28 % ID/g
Drug uptake (Brain [8]): tde
Drug uptake (Lung [9]): 0.76 % ID/g
Drug uptake (Lung [10]): 1.32 % ID/g
Drug uptake (Lung [11]): 1.69 % ID/g
Drug uptake (Spleen [12]): 0.6 % ID/g
Drug uptake (Spleen [13]): 0.64 % ID/g
Drug uptake (Spleen [14]): 0.79 % ID/g
Drug uptake (Spleen [15]): 1.19 % ID/g
Drug uptake (Spleen [16]): 2.04 % ID/g
Drug uptake (Liver): 4.19 % ID/g
Drug uptake (Heart [17]): 0.77 % ID/g
Drug uptake (Heart [18]): 1.93 % ID/g
SMILES: COC(=O)CNC(=O)c1ccc(OCC[18F])cc1 [[18F]FEBA]
